# Like-named read-outs stand apart in the source and are kept apart here.
# How the values were obtained:
# [1] = Multiple ascending dose (MAD) pharmacokinetics in humans; assay type: in vivo
# [2] = In vitro binding to synthetic melanin; details: synthetic melanin 50 μg/mL, PBS, 37° C., 1 hour
# Protocol: […] The melanin solution was stored in the dark at 37° C. until use.
# Immediately after the assay, samples were added to an equal volume of warm PBS, aliquots (3 μL each) were removed, added to 100 μL of acetonitrile containing carbutamide as internal standard, and then diluted with water (197 μL). These time-zero samples, prepared in PBS only, were also used as calibration standards.
# The assay plates containing samples with and without melanin were incubated in the dark with shaking at 37° C. for 1 hour. Following incubation, the samples were centrifuged for 15 minutes at approximately 4000 rpm at 37° C. to sediment the melanin. Sample supernatant (3 μL) was added to 100 μL of acetonitrile containing the internal standard and then diluted with water (197 μL).
# The column was set to a temperature of 55° C. […]
# Analytes and internal standards were detected using an Applied Biosystems Sciex API-5500 triple quadrupole mass spectrometer with Agilent 1260 Infinity Binary Pump and Apricot Designs ADDA High-Speed Dual Arm Autosampling System. The instrument was equipped with an electrospray ionization source (600° C.) operated in the positive ion mode. Analytes and internal standards for all samples were monitored in the multiple-reaction-monitoring scan mode.
# AP activity = test: cells; details: Oryctolagus cuniculus, Erythrocyte, read-out: IC50 for rabbit erythrocyte hemolysis
# [3] = Ocular tissue and plasma pharmacokinetics, 15 mg/kg oral, New Zealand White rabbits (Example 3/5); assay type: in vivo
# [4] = Choroid-RPE, NZW rabbit, 15 mg/kg single dose, Day 1
# [5] = NZW rabbit, 15 mg/kg single oral dose, Day 1, 0 h, 15 mg/kg
# [6] = NZW rabbit, 15 mg/kg single oral dose, Day 1, 6 h, 15 mg/kg
# [7] = NZW rabbit, 15 mg/kg single oral dose, Day 1, 24 h
# [8] = NZW rabbit, 15 mg/kg single oral dose, Day 1, 24 h, 15 mg/kg
# [9] = NZW rabbit, 15 mg/kg single oral dose, Day 1, 96 h
# [10] = NZW rabbit, 15 mg/kg single oral dose, Day 1, 96 h, 15 mg/kg
# [11] = NZW rabbit, 15 mg/kg single oral dose, Day 1, 168 h
# [12] = NZW rabbit, 15 mg/kg single oral dose, Day 1, 168 h, 15 mg/kg
# [13] = NZW rabbit, 15 mg/kg single oral dose, Day 1, 240 h, 15 mg/kg
# [14] = NZW rabbits, Day 1, 15 mg/kg single dose, 0 hr
# [15] = NZW rabbits, Day 1, 15 mg/kg single dose, 168 hr
# [16] = NZW rabbits, Day 1, 15 mg/kg single dose, 240 hr
# [17] = New Zealand White, po, Iris-Ciliary Body, NZW rabbit, 15 mg/kg single dose, Day 1
# [18] = New Zealand White, po, Vitreous Humor, NZW rabbit, 15 mg/kg single dose, Day 1
# [19] = plasma, NZW rabbit, 15 mg/kg single dose, Day 1
# [20] = retina, NZW rabbit, 15 mg/kg single dose, Day 1
smiles,measurement,setting,value
"CC(=O)c1nn(CC(=O)N2C[C@H](F)C[C@H]2C(=O)Nc2cccc(Br)n2)c2ccc(-c3cnc(C)nc3)cc12 [Compound 1, (2S,4R)-1-(2-(3-Acetyl-5-(2-methylpyrimidin-5-yl)-1H-indazol-1-yl)acetyl)-N-(6-bromopyridin-2-yl)-4-fluoropyrrolidine-2-carboxamide]",Steady state conditions reached,[1]; MAD study,Day 2
same,Tmax,"[1]; human, in vivo, 200 to 800 mg BID and 75 mg TID, read-out: Median time to maximum concentration (Tmax)",1 to 2.3 h
same,Bmax (binding capacity),[2],127 nmol/mg melanin
same,IC50,AP activity,27 nM
same,MRTlast,[3]; [4],5.87 h
same,Tlast,[3]; [4],24 h
same,Tlast,"[3]; Iris-Ciliary Body, NZW rabbit, 15 mg/kg single dose, Day 1",1 h
same,Mean Vitreous Humor concentration,"[3]; NZW rabbit, 15 mg/kg single oral dose, Day 1, 0 h",BLQ^a
same,Mean Choroid-RPE concentration,[3]; [5],BLQ^a and BLQ
same,Mean Iris-Ciliary Body concentration,[3]; [5],BLQ^a and BLQ
same,Mean plasma concentration,[3]; [5],BLQ^a and BLQ
same,Mean retina concentration,[3]; [5],BLQ^a and BLQ
same,Mean Aqueous Humor concentration,"[3]; NZW rabbit, 15 mg/kg single oral dose, Day 1, 6 h",BLQ^a
same,Mean Iris-Ciliary Body concentration,[3]; [6],BLQ^a and BLQ
same,Mean retina concentration,[3]; [6],26 ng/g
same,Mean Aqueous Humor concentration,[3]; [7],BLQ^a
same,Mean Vitreous Humor concentration,[3]; [7],BLQ^a
same,Mean Iris-Ciliary Body concentration,[3]; [8],BLQ^a and BLQ
same,Mean retina concentration,[3]; [8],BLQ^a and BLQ
same,Mean Aqueous Humor concentration,[3]; [9],BLQ^a
same,Mean Vitreous Humor concentration,[3]; [9],BLQ^a
same,Mean Choroid-RPE concentration,[3]; [10],BLQ^a and BLQ
same,Mean Iris-Ciliary Body concentration,[3]; [10],BLQ^a and BLQ
same,Mean plasma concentration,[3]; [10],BLQ^a and BLQ
same,Mean retina concentration,[3]; [10],BLQ^a and BLQ
same,Mean Aqueous Humor concentration,[3]; [11],BLQ^a
same,Mean Vitreous Humor concentration,[3]; [11],BLQ^a
same,Mean Choroid-RPE concentration,[3]; [12],BLQ^a and BLQ
same,Mean Iris-Ciliary Body concentration,[3]; [12],BLQ^a and BLQ
same,Mean retina concentration,[3]; [12],BLQ^a and BLQ
same,Mean Aqueous Humor concentration,"[3]; NZW rabbit, 15 mg/kg single oral dose, Day 1, 240 h",BLQ^a
same,Mean Choroid-RPE concentration,[3]; [13],BLQ^a and BLQ
same,Mean Iris-Ciliary Body concentration,[3]; [13],BLQ^a and BLQ
same,Mean plasma concentration,[3]; [13],BLQ^a and BLQ
same,Mean retina concentration,[3]; [13],BLQ^a and BLQ
same,Mean Choroid-RPE concentration,[3]; [14],BLQ
same,Mean retina concentration,[3]; [14],BLQ
same,Mean retina concentration,"[3]; NZW rabbits, Day 1, 15 mg/kg single dose, 24 hr",BLQ
same,Mean Choroid-RPE concentration,"[3]; NZW rabbits, Day 1, 15 mg/kg single dose, 96 hr",BLQ
same,Mean Choroid-RPE concentration,[3]; [15],BLQ
same,Mean retina concentration,[3]; [15],BLQ
same,Mean Choroid-RPE concentration,[3]; [16],BLQ
same,Mean retina concentration,[3]; [16],BLQ
same,concentration at 1 h,"[3]; New Zealand White, aqueous humor, NZW rabbit, 15 mg/kg single oral dose, Day 1, 1 h, read-out: Mean Aqueous Humor concentration",4 ng/mL
same,concentration at 1 h,"[3]; New Zealand White, choroid-RPE, NZW rabbit, 15 mg/kg single oral dose, Day 1, 1 h, read-out: Mean Choroid-RPE concentration",172 ng/g
same,concentration at 6 h,"[3]; New Zealand White, choroid-RPE, NZW rabbit, 15 mg/kg single oral dose, Day 1, 6 h, read-out: Mean Choroid-RPE concentration",31.5 ng/g
same,concentration at 24 h,"[3]; New Zealand White, choroid-RPE, NZW rabbit, 15 mg/kg single oral dose, Day 1, 24 h, read-out: Mean Choroid-RPE concentration",15.1 ng/g
same,concentration at 1 h,"[3]; New Zealand White, plasma, NZW rabbit, 15 mg/kg single oral dose, Day 1, 1 h, read-out: Mean plasma concentration",310 ng/mL
same,concentration at 6 h,"[3]; New Zealand White, plasma, NZW rabbit, 15 mg/kg single oral dose, Day 1, 6 h, read-out: Mean plasma concentration",35.1 ng/mL
same,concentration at 24 h,"[3]; New Zealand White, plasma, NZW rabbit, 15 mg/kg single oral dose, Day 1, 24 h, read-out: Mean plasma concentration",11.1 ng/mL
same,Cmax,[3]; [17],117 ng/g
same,MRT last,[3]; [17],1 h
same,AUC(0-t),[3]; [18],30.3 ng·h/mL
same,Cmax,[3]; [18],7.61 ng/mL
same,Cmax,"[3]; New Zealand White, po, plasma, NZW rabbit, 15 mg/kg single dose, Day 1",310 ng/mL
same,concentration at 1 h,"[3]; New Zealand White, rabbit, choroid-RPE, oral, NZW rabbits, Day 1, 15 mg/kg single dose, 1 hr, read-out: Mean Choroid-RPE Concentration",172 ng/g
same,concentration at 6 h,"[3]; New Zealand White, rabbit, choroid-RPE, oral, NZW rabbits, Day 1, 15 mg/kg single dose, 6 hr, read-out: Mean Choroid-RPE Concentration",31.5 ng/g
same,concentration at 24 h,"[3]; New Zealand White, rabbit, choroid-RPE, oral, NZW rabbits, Day 1, 15 mg/kg single dose, 24 hr, read-out: Mean Choroid-RPE Concentration",15.1 ng/g
same,concentration at 1 h,"[3]; New Zealand White, rabbit, retina, oral, NZW rabbits, Day 1, 15 mg/kg single dose, 1 hr, read-out: Mean Retina Concentration",200 ng/g
same,concentration at 6 h,"[3]; New Zealand White, rabbit, retina, oral, NZW rabbits, Day 1, 15 mg/kg single dose, 6 hr, read-out: Mean Retina Concentration",26 ng/g
same,concentration at 1 h,"[3]; New Zealand White, retina, NZW rabbit, 15 mg/kg single oral dose, Day 1, 1 h, read-out: Mean retina concentration",200 ng/g
same,concentration at 6 h,"[3]; New Zealand White, retina, NZW rabbit, 15 mg/kg single oral dose, Day 1, 6 h, read-out: Mean retina concentration",26 ng/g
same,concentration at 1 h,"[3]; New Zealand White, vitreous humor, NZW rabbit, 15 mg/kg single oral dose, Day 1, 1 h, read-out: Mean Vitreous Humor concentration",7.61 ng/mL
same,concentration at 6 h,"[3]; New Zealand White, vitreous humor, NZW rabbit, 15 mg/kg single oral dose, Day 1, 6 h, read-out: Mean Vitreous Humor concentration",3 ng/mL
same,MRTlast,[3]; [19],4.01 h
same,Tlast,[3]; [19],24 h
same,MRTlast,[3]; [20],1.49 h
same,Tlast,[3]; [20],6 h

# From patent US20230126447A1, “OCULAR DRUG DEPOT FOR COMPLEMENT-MEDIATED DISORDERS” (priority 2020, published 2023)
